Source: PubChem BioAssay AID248 (DTP/NCI, 2004)
Where “and” joins values, the source holds several entries; their conditions need not be identical. Equal values may be shown once. Toxic doses and inconclusive results are not listed.

System: L1210 leukemia ip in BDF1 mice, survival T/C
Experiment: NCI In Vivo Anticancer Drug Screen. Data for tumor model L1210 Leukemia (intraperitoneal) in B6D2F1 (BDF1) mice
Details: endpoint: mean survival time, higher = longer survival
Outline: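 Tumor cells were implanted, animals were treated, and survival was followed. The result divides the treated measurement by the vehicle-control measurement.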

With `O=c1cnn(C2OC(CO)C(O)C2O)c(=O)[nH]1` (configuration not stated) as the compound, how does the T/C (dose: 600.0 mg/kg/injection, schedule: Q01DX001 (sc), vehicle: saline) read?
Its T/C is 106 % of control.

And the T/C (dose: 600.0 mg/kg/injection, schedule: Q01DX005 (ip), vehicle: saline)?
Its T/C is 121 % of control.

And the T/C (dose: 600.0 mg/kg/injection, schedule: Q01DX009 (oral), vehicle: saline)?
The T/C was 118 % of control.

What about the T/C (dose: 600.0 mg/kg/injection, schedule: Q01DX Z (oral), vehicle: saline) of the same compound?
Its T/C is 154 % of control.

And the T/C (dose: 600.0 mg/kg/injection, schedule: Q## X002 (ip), vehicle: saline)?
The T/C was 98 % of control.

And the T/C (dose: 600.0 mg/kg/injection, schedule: Q## X003 (ip), vehicle: saline)?
The T/C was 107 % of control.

What about the T/C (dose: 600.0 mg/kg/injection, schedule: Q## X008 (ip), vehicle: saline) of the same compound?
Its T/C is 119 % of control.

And the T/C (dose: 600.0 mg/kg/injection, schedule: Q## X016 (ip), vehicle: saline)?
Its T/C is 117 % of control.

And the T/C (dose: 700.0 mg/kg/injection, schedule: Q01DX001 (ip), vehicle: saline)?
Its T/C is 113 % of control and 116 % of control.

What about the T/C (dose: 700.0 mg/kg/injection, schedule: Q07DX Z (ip), vehicle: other) of the same compound?
The T/C was 111 % of control.

What about the T/C (dose: 700.0 mg/kg/injection, schedule: Q07DX Z (ip), vehicle: saline) of the same compound?
The T/C was 113 % of control.

And the T/C (dose: 800.0 mg/kg/injection, schedule: Q01DX009 (ip), vehicle: saline)?
Its T/C is 110 % of control.

What about the T/C (dose: 800.0 mg/kg/injection, schedule: Q01DX Z (im), vehicle: saline) of the same compound?
Its T/C is 151 % of control.

What about the T/C (dose: 800.0 mg/kg/injection, schedule: Q## X000 (other), vehicle: other) of the same compound?
The T/C was 107 % of control.

And the T/C (dose: 800.0 mg/kg/injection, schedule: Q#A X Z (ip), vehicle: saline)?
Its T/C is 101 % of control.

And the T/C (dose: 1024.0 mg/kg/injection, schedule: Q03HX016 (ip), vehicle: saline)?
Its T/C is 176 % of control.

What about the T/C (dose: 1024.0 mg/kg/injection, schedule: Q03HX016 (oral), vehicle: saline) of the same compound?
Its T/C is 161 % of control.

What about the T/C (dose: 1200.0 mg/kg/injection, schedule: Q01DX001 (oral), vehicle: saline) of the same compound?
The T/C was 112 % of control.

And the T/C (dose: 1200.0 mg/kg/injection, schedule: Q01DX001 (sc), vehicle: saline)?
The T/C was 110 % of control.

What about the T/C (dose: 1200.0 mg/kg/injection, schedule: Q01DX009 (ip), vehicle: saline) of the same compound?
Its T/C is 98 % of control.

And the T/C (dose: 1200.0 mg/kg/injection, schedule: Q01DX009 (oral), vehicle: saline)?
The T/C was 100 % of control.

And the T/C (dose: 1200.0 mg/kg/injection, schedule: Q01DX009 (sc), vehicle: saline)?
The T/C was 94 % of control.

And the T/C (dose: 1200.0 mg/kg/injection, schedule: Q01DX Z (oral), vehicle: saline)?
Its T/C is 104 % of control.

And the T/C (dose: 1200.0 mg/kg/injection, schedule: Q03DX Z (ip), vehicle: other)?
The T/C was 158 % of control.

And the T/C (dose: 1200.0 mg/kg/injection, schedule: Q## X002 (ip), vehicle: saline)?
The T/C was 110 % of control.

What about the T/C (dose: 1200.0 mg/kg/injection, schedule: Q## X003 (ip), vehicle: saline) of the same compound?
Its T/C is 114 % of control.

What about the T/C (dose: 1200.0 mg/kg/injection, schedule: Q## X008 (ip), vehicle: saline) of the same compound?
The T/C was 123 % of control.

What about the T/C (dose: 1200.0 mg/kg/injection, schedule: Q## X024 (ip), vehicle: saline) of the same compound?
The T/C was 155 % of control.

What about the T/C (dose: 1400.0 mg/kg/injection, schedule: Q01DX001 (ip), vehicle: saline) of the same compound?
Its T/C is 115 % of control and 116 % of control.

What about the T/C (dose: 1400.0 mg/kg/injection, schedule: Q07DX Z (ip), vehicle: other) of the same compound?
Its T/C is 117 % of control.

What about the T/C (dose: 1600.0 mg/kg/injection, schedule: Q01DX009 (ip), vehicle: saline) of the same compound?
Its T/C is 92 % of control.

And the T/C (dose: 1600.0 mg/kg/injection, schedule: Q01DX Z (oral), vehicle: other)?
The T/C was 96 % of control.

And the T/C (dose: 1600.0 mg/kg/injection, schedule: Q01DX Z (oral), vehicle: saline)?
The T/C was 98 % of control.

What about the T/C (dose: 2048.0 mg/kg/injection, schedule: Q03HX016 (ip), vehicle: saline) of the same compound?
The T/C was 174 % of control.

And the T/C (dose: 2400.0 mg/kg/injection, schedule: Q01DX001 (oral), vehicle: saline)?
Its T/C is 117 % of control.

What about the T/C (dose: 2400.0 mg/kg/injection, schedule: Q01DX001 (sc), vehicle: saline) of the same compound?
Its T/C is 115 % of control.

And the T/C (dose: 2400.0 mg/kg/injection, schedule: Q03DX Z (ip), vehicle: other)?
The T/C was 151 % of control.

What about the T/C (dose: 2400.0 mg/kg/injection, schedule: Q## X002 (ip), vehicle: saline) of the same compound?
The T/C was 107 % of control.

What about the T/C (dose: 2400.0 mg/kg/injection, schedule: Q## X024 (ip), vehicle: saline) of the same compound?
The T/C was 153 % of control.

What about the T/C (dose: 2800.0 mg/kg/injection, schedule: Q01DX001 (ip), vehicle: saline) of the same compound?
The T/C was 121 % of control.

And the T/C (dose: 2800.0 mg/kg/injection, schedule: Q07DX Z (ip), vehicle: other)?
Its T/C is 124 % of control.

And the T/C (dose: 3200.0 mg/kg/injection, schedule: Q01DX Z (im), vehicle: saline)?
The T/C was 87 % of control.
